Data: patent US20050209336A1, “EP2 receptor agonists” (priority 2003, published 2005)
Read-outs that look alike come from different tables or passages of the source.

Assays:
human EP3 receptor = target: T1, human EP3 receptor (Homo sapiens, UniProt P43115); assay: Radioligand ([3H]PGE2) competition displacement binding, human EP3 receptor membranes; conditions: [3H]PGE2 displacement, read-out: pKi EP3 (converted)
T1 construct: expressed in transfected cells
T1 sequence (P43115 1-390): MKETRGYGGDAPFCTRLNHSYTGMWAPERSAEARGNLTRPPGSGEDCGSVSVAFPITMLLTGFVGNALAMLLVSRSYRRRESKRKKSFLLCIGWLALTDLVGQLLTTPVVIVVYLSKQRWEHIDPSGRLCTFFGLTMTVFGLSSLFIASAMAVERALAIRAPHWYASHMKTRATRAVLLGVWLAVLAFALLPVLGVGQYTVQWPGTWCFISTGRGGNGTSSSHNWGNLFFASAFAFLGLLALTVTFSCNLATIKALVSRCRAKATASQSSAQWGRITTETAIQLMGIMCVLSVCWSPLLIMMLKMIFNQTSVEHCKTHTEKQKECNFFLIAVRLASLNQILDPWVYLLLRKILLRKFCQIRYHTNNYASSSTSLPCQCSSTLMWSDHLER
Procedure: Membranes were prepared from cells stably transfected with human EP receptor cDNA. In brief, cells were cultured to confluency, scraped from culture flasks, and centrifuged (800 g, 8 minutes, 4° C.). Cells were twice washed in ice cold homogenisation buffer containing 10 mMTris-HCl, 1 mM EDTA.2Na, 250 mM sucrose, 1 mM PMSF, 0.3 mM indomethacin, pH 7.4, homogenised and re-centrifuged as before. The supernatant was stored on ice and pellets re-homogenised and re-spun. Supernatants were pooled and centrifuged at 40000 g, 10 minutes, 4° C. Resultant membrane pellets were stored at −80° C. until use.
For assay, membranes expressing human EP4, EP3, EP2 or EP1 receptors were incubated in Millipore (MHVBN45) plates containing assay buffer, radiolabelled [^3H]PGE2 and 0.1 to 10 000 nM concentrations of compounds. Incubations were performed at suitable temperatures and for suitable times to allow equilibrium to be reached. Non-specific binding was determined in the presence of 10 uM PGE2. Bound and free radiolabel was separated by vacuum manifold filtration using appropriate wash buffers, and bound radiolabel was determined by scintillation counting. Constituents of each of the buffers are included in table 4 below.
The affinity or pKi of each compound for each receptor was calculated from the concentration causing 50% radioligand displacement (IC50) using the Cheng-Prusoff equation: [formula]
This approach follows that set out in Kenakin, T. P., Pharmacologic analysis of drug receptor interaction. Raven Press, New York, 2nd edition.

[1] = system: IL-2 production by OKT3 activated T cells; assay: Lymphocyte assay: IL-2 production by anti-CD3 (OKT3) stimulated T cells; format: cell-based, human; conditions: Homo sapiens, T-cell, 24 h, inhibition of IL-2 production
Source text: Lymphocytes are mononuclear leukocytes, which participate in specific immune responses to foreign antigens and in the manifestation of auto-immune diseases. T lymphocytes produce IL-2, a key factor for lymphocyte activation and proliferation, in response to antigen stimulation via the CD3-T cell receptor complex and the pathway involved in this response is the NF-AT. […] A lymphocyte assay was designed to model this response and to determine the effect of test compound on IL-2 production by anti-CD3-stimulated T cells isolated from peripheral blood. This assay uses a sub-optimal dose of an anti-CD3 monoclonal antibody (OKT3, 25 ng/ml) immobilised to a 96-well plate to stimulate a T cell response. The level of IL-2 released into the cell culture supernatants was quantified using a standard sandwich ELISA. Similarly, other cytokines such as TNFα and IFN-γ can also be measured in the same assay.
Human peripheral blood mononuclear cells from healthy volunteers were isolated from whole blood by Ficoll-Hypaque density centrifugation and adherence to plastic. The non-adherent lymphocyte fraction was used to set up the lymphocyte assay and the adherent monocytes were then recovered by scraping and subsequently used in the monocyte assay.
Lymphocytes were then seeded to a 96-well plate pre-coated with anti-CD3 monoclonal antibody (OKT3) at 25 ng/ml and immediately, the test compounds (Peak 1, mixture 1 acid; Peak 1, mixture 2 acid; AH-13205 racemate; PGE2) in appropriate dilutions were added to corresponding wells according to the experimental design. The plate was incubated for 24 hours at 37° C. with 5% CO2 in air and supernatants were recovered for ELISA analysis at the end of incubation period. The levels of IFN-γ was assessed by using the ProteoPlex 16 well human cytokine array assay kit according to the manufacturer's instruction.

[2] = system: human myometrial smooth muscle; assay: Human myometrial activity: inhibition of electrical field stimulation (EFS) induced contractions; format: cell-based; conditions: for maximum inhibitory effect: inhibition of EFS-induced contractions / EC50: human myometrium strips; for effect on electrically-induced (EFS-evoked) contractions: human myometrium, 10^-6 to 10^-4 M (FIG. 6), 1x10^-7 to 1x10^-4 M; for EC50: inhibition of EFS-evoked response
Procedure: The following describes an in vitro functional assay, using human myometrial smooth muscle, to determine the affinity of the test compounds at the EP2 receptor in human tissues.
Sections of human myometrium were prepared from samples of surgically removed uterus longitudinal myometrial muscle strips (2 mm wide by 10 mm long) were then cut and suspended between stainless steel hooks in organ chambers containing oxygenated (95% O2/5% CO2) Krebs solution at 37° C. The composition of the Krebs solution was as follows: NaCl (118.2 mM), KCl (4.69 mM), MgSO4.7H2O (1.18 mM), KH2PO4 (1.19 mM), glucose (11.1 mM), NaHCO3 (25.0 mM), CaCl2.6H2O (2.5 mM), indomethacin 3×10^−6M.
Tissues were placed under a tension equivalent to 25 mN and left overnight at room temperature. The following day the tissues were maintained at 37° C., washed and placed under a tension of 15 mN then allowed to equilibrate for a period of at least 30 minutes. Responses were recorded using isometric transducers coupled to an Apple Macintosh computer via a MacLab interface. After 60 minutes, the muscle sections of the human myometrium were stimulated electrically (15 ms pulse width, for 10 s every 100 s at 15V and 0.5-40 Hz) using parallel platinum wire electrodes and a Multistim D330 pulse stimulator. Upon electrical stimulation, the strips of human myometrial smooth muscle responded with a rapid contraction. Once the response to electrical stimulation had stabilised (stimulated responses differed by no more than 10%), the strips were exposed to increasing concentrations of test compounds (1×10^−7 to 1×10^−4M, incubated for at least 15 minutes at each concentration). At the end of the experiment, application of sodium nitroprusside (SNP, a nitric oxide donor that causes smooth muscle relaxation) (1×10^−4M) was used to produce a standard relaxatory response. To determine the affinity of the compounds, the concentration of test compound required to produce half-maximal effects (EC50) was calculated, as was the maximum response (calculated as a percentage of the standard response produced with SNP).

[3] = mean of four donors (FIG. 9, table 7), read-out: Mean EC50
[4] = log scale, mean of four donors (FIG. 9, table 7), read-out: Mean Log (EC50) (converted)

SMILES | Ki (human EP3 receptor) [nM] | EC50 [1, 3] [nM] | EC50 ([1]; mean of three to five donors (FIG. 10, table 8), read-out: Mean EC50) [nM] | EC50 [1, 4] [nM] | EC50 ([1]; log scale, mean of three to five donors (FIG. 10, table 8), read-out: Mean Log (EC50) (converted)) [nM] | maximum inhibitory effect: inhibition of EFS-induced contractions [2] [%] | effect on electrically-induced (EFS-evoked) contractions [2] | EC50 [2] [nM] | effect on electrically-induced (EFS-evoked) contractions ([2]; listed as AH-13205)
CCCCC[C@H](O)c1ccc([C@H]2CCC(=O)[C@@H]2CCCCCCC(=O)O)cc1 (single isomer, unassigned) [Peak 1, Mixture 1 acid] | 2000 | 986 | 1320 | 986 | 1320 | 56±5 | concentration-dependent inhibition | 1260 | 
CCCCCC(O)c1ccc(C2CCC(=O)C2CCCCCCC(=O)O)cc1 (racemic) [AH13205, (±)-trans-2-[4-(1-hydroxyhexyl)phenyl]-5-oxo-cyclopentaneheptanoic acid, reference compound] | 6310 | 2820 |  | 2820 |  | 49±5 | concentration-dependent inhibition | 5010 | inhibit electrically-induced contractions
CCCCC[C@@H](O)c1ccc([C@H]2CCC(=O)[C@@H]2CCCCCCC(=O)O)cc1 (single isomer, unassigned) [Peak 1, Mixture 2 acid] | 15800 |  |  |  |  | 57±2 | concentration-dependent inhibition | 5010 | 
